US20050244486A1, “Topical methadone compositions and methods for using the same” (priority 2004, published 2005)
Values joined by “and” are separate entries in the source; they are usually repeats but may differ in a detail not shown here. Equal entries are not always repeated. Where two headings read alike, the source gives them in different places.

Experiments:
[1] = Study 1: concentrations of methadone in rat plasma, topical administration versus intravenous injection; format: in vivo
Description: (§1) The test article was administered intravenously (IV) through the tail vein to animals in Group A. The injection was performed slowly. A gauze pad (1×1 cm) Saturated with 0.2 mL of the appropriate test article was applied to the clipped site on the back of the animals in Groups 2 and 3. The gauze pad was secured by occlusive tape. The animal was wrapped in gauze, which was held in place with Zonas porous tape.
(§2) Blood Collection: Blood (0.5 mL) was collected into sodium heparin tubes at the appropriate time points. The samples were centrifuged at approximately 2800 rpm at 2-8 degrees Celsius for approximately 15 minutes. Plasma was collected.

[2] = Study 2: concentrations of methadone in rat plasma, topical administration versus intravenous injection; format: in vivo
Description: as §1, §2

SMILES: CCC(=O)C(CC(C)N(C)C)(c1ccccc1)c1ccccc1 (centres unmarked) [Methadone, 6-dimethylamino-4,4-diphenyl-3-hepatone]
- Irritation of rat skin by topical application ([1]; Study 1, topical methadone solutions on rat skin over the application time): non-irritating
- Concentrations of Methadone in Rat Plasma Samples ([1]; Study 1 Group A: I.V. tail vein, 0.25 mL Test Article 1 (0.5 mg/mL Methadone-Saline Solution), 2 min, individual rats A1-A3): 67.8 ng/mL and 69.5 ng/mL
- Concentrations of Methadone in Rat Plasma Samples ([1]; Study 1 Group A: I.V. tail vein, 0.25 mL Test Article 1 (0.5 mg/mL Methadone-Saline Solution), 5 min, individual rats A1-A3): 68.9 ng/mL and 56.0 ng/mL
- Concentrations of Methadone in Rat Plasma Samples ([1]; Study 1 Group A: I.V. tail vein, 0.25 mL Test Article 1 (0.5 mg/mL Methadone-Saline Solution), 10 min, individual rats A1-A3): 57.6 ng/mL and 42.3 ng/mL
- Concentrations of Methadone in Rat Plasma Samples ([1]; Study 1 Group A: I.V. tail vein, 0.25 mL Test Article 1 (0.5 mg/mL Methadone-Saline Solution), 30 min, individual rats A1-A3): 30.9 ng/mL and 35.8 ng/mL
- Concentrations of Methadone in Rat Plasma Samples ([1]; Study 1 Group A: I.V. tail vein, 0.25 mL Test Article 1 (0.5 mg/mL Methadone-Saline Solution), 60 min, individual rats A1-A3): 24.5 ng/mL and 22.7 ng/mL
- Concentrations of Methadone in Rat Plasma Samples ([1]; Study 1 Group B: topical dorsal flank, 1 × 1 cm gauze pad with 0.2 mL Test Article 2 (Methadone-Diisopropyl Adipate Solution 23.9%), 10 min, individual rats B1-B3): BQL (below quantification limit (1.00 ng/mL))
- Concentrations of Methadone in Rat Plasma Samples ([1]; Study 1 Group B: topical dorsal flank, 1 × 1 cm gauze pad with 0.2 mL Test Article 2 (Methadone-Diisopropyl Adipate Solution 23.9%), 20 min, individual rats B1-B3): 3.25 ng/mL and 3.18 ng/mL
- Concentrations of Methadone in Rat Plasma Samples ([1]; Study 1 Group B: topical dorsal flank, 1 × 1 cm gauze pad with 0.2 mL Test Article 2 (Methadone-Diisopropyl Adipate Solution 23.9%), 45 min, individual rats B1-B3): 10.4 ng/mL and 7.24 ng/mL
- Concentrations of Methadone in Rat Plasma Samples ([1]; Study 1 Group B: topical dorsal flank, 1 × 1 cm gauze pad with 0.2 mL Test Article 2 (Methadone-Diisopropyl Adipate Solution 23.9%), 60 min, individual rats B1-B3): 15.1 ng/mL and 12.4 ng/mL
- Concentrations of Methadone in Rat Plasma Samples ([1]; Study 1 Group B: topical dorsal flank, 1 × 1 cm gauze pad with 0.2 mL Test Article 2 (Methadone-Diisopropyl Adipate Solution 23.9%), 120 min, individual rats B1-B3): 44.1 ng/mL and 57.8 ng/mL and 26.2 ng/mL
- Concentrations of Methadone in Rat Plasma Samples ([1]; Study 1 Group C: topical dorsal flank, 1 × 1 cm gauze pad with 0.2 mL Test Article 3 (Methadone-DEET Solution 10%), 10 min, individual rats C1-C3): BQL (below quantification limit (1.00 ng/mL))
- Concentrations of Methadone in Rat Plasma Samples ([1]; Study 1 Group C: topical dorsal flank, 1 × 1 cm gauze pad with 0.2 mL Test Article 3 (Methadone-DEET Solution 10%), 20 min, individual rats C1-C3): BQL (below quantification limit (1.00 ng/mL))
- Concentrations of Methadone in Rat Plasma Samples ([1]; Study 1 Group C: topical dorsal flank, 1 × 1 cm gauze pad with 0.2 mL Test Article 3 (Methadone-DEET Solution 10%), 45 min, individual rats C1-C3): 2.66 ng/mL and 2.84 ng/mL
- Concentrations of Methadone in Rat Plasma Samples ([1]; Study 1 Group C: topical dorsal flank, 1 × 1 cm gauze pad with 0.2 mL Test Article 3 (Methadone-DEET Solution 10%), 60 min, individual rats C1-C3): 3.27 ng/mL and 4.16 ng/mL
- Concentrations of Methadone in Rat Plasma Samples ([1]; Study 1 Group C: topical dorsal flank, 1 × 1 cm gauze pad with 0.2 mL Test Article 3 (Methadone-DEET Solution 10%), 120 min, individual rats C1-C3): 6.22 ng/mL and 5.97 ng/mL
- concentration at 45 min ([1]; rat, in vivo, 0.2 mL of 10% methadone solution, Study 1 Group C: topical dorsal flank, 1 × 1 cm gauze pad with 0.2 mL Test Article 3 (Methadone-DEET Solution 10%), 45 min, individual rats C1-C3, read-out: Concentrations of Methadone in Rat Plasma Samples): 3.83 ng/mL
- concentration at 60 min ([1]; rat, in vivo, 0.2 mL of 10% methadone solution, Study 1 Group C: topical dorsal flank, 1 × 1 cm gauze pad with 0.2 mL Test Article 3 (Methadone-DEET Solution 10%), 60 min, individual rats C1-C3, read-out: Concentrations of Methadone in Rat Plasma Samples): 3.88 ng/mL
- concentration at 120 min ([1]; rat, in vivo, 0.2 mL of 10% methadone solution, Study 1 Group C: topical dorsal flank, 1 × 1 cm gauze pad with 0.2 mL Test Article 3 (Methadone-DEET Solution 10%), 120 min, individual rats C1-C3, read-out: Concentrations of Methadone in Rat Plasma Samples): 6.85 ng/mL
- concentration at 10 min ([1]; rat, in vivo, 0.2 mL of 23.9% methadone solution, Study 1 Group B: topical dorsal flank, 1 × 1 cm gauze pad with 0.2 mL Test Article 2 (Methadone-Diisopropyl Adipate Solution 23.9%), 10 min, individual rats B1-B3, read-out: Concentrations of Methadone in Rat Plasma Samples): 3.02 ng/mL
- concentration at 20 min ([1]; rat, in vivo, 0.2 mL of 23.9% methadone-diisopropyl adipate solution, Study 1 Group B: topical dorsal flank, 1 × 1 cm gauze pad with 0.2 mL Test Article 2 (Methadone-Diisopropyl Adipate Solution 23.9%), 20 min, individual rats B1-B3, read-out: Concentrations of Methadone in Rat Plasma Samples): 4.14 ng/mL
- concentration at 45 min ([1]; rat, in vivo, 0.2 mL of 23.9% methadone-diisopropyl adipate solution, Study 1 Group B: topical dorsal flank, 1 × 1 cm gauze pad with 0.2 mL Test Article 2 (Methadone-Diisopropyl Adipate Solution 23.9%), 45 min, individual rats B1-B3, read-out: Concentrations of Methadone in Rat Plasma Samples): 11.5 ng/mL
- concentration at 60 min ([1]; rat, in vivo, 0.2 mL of 23.9% methadone-diisopropyl adipate solution, Study 1 Group B: topical dorsal flank, 1 × 1 cm gauze pad with 0.2 mL Test Article 2 (Methadone-Diisopropyl Adipate Solution 23.9%), 60 min, individual rats B1-B3, read-out: Concentrations of Methadone in Rat Plasma Samples): 11.3 ng/mL
- concentration at 2 min ([1]; rat, in vivo, iv, 0.125 mg/animal, Study 1 Group A: I.V. tail vein, 0.25 mL Test Article 1 (0.5 mg/mL Methadone-Saline Solution), 2 min, individual rats A1-A3, read-out: Concentrations of Methadone in Rat Plasma Samples): 73.5 ng/mL
- concentration at 5 min ([1]; rat, in vivo, iv, 0.125 mg/animal, Study 1 Group A: I.V. tail vein, 0.25 mL Test Article 1 (0.5 mg/mL Methadone-Saline Solution), 5 min, individual rats A1-A3, read-out: Concentrations of Methadone in Rat Plasma Samples): 68.7 ng/mL
- concentration at 10 min ([1]; rat, in vivo, iv, 0.125 mg/animal, Study 1 Group A: I.V. tail vein, 0.25 mL Test Article 1 (0.5 mg/mL Methadone-Saline Solution), 10 min, individual rats A1-A3, read-out: Concentrations of Methadone in Rat Plasma Samples): 61.8 ng/mL
- concentration at 30 min ([1]; rat, in vivo, iv, 0.125 mg/animal, Study 1 Group A: I.V. tail vein, 0.25 mL Test Article 1 (0.5 mg/mL Methadone-Saline Solution), 30 min, individual rats A1-A3, read-out: Concentrations of Methadone in Rat Plasma Samples): 35.3 ng/mL
- concentration at 60 min ([1]; rat, in vivo, iv, 0.125 mg/animal, Study 1 Group A: I.V. tail vein, 0.25 mL Test Article 1 (0.5 mg/mL Methadone-Saline Solution), 60 min, individual rats A1-A3, read-out: Concentrations of Methadone in Rat Plasma Samples): 22.8 ng/mL
- Irritation of rat skin by topical application ([2]; Study 2, topical methadone solutions on rat skin): lack of irritation
- Concentrations of Methadone in Rat Plasma Samples ([2]; Study 2 Group A: I.V. tail vein, 0.25 mL Test Article 1 (0.5 mg/mL Methadone-Saline Solution), 2 min, individual rats A1-A3): 72.0 ng/mL and 63.1 ng/mL
- Concentrations of Methadone in Rat Plasma Samples ([2]; Study 2 Group A: I.V. tail vein, 0.25 mL Test Article 1 (0.5 mg/mL Methadone-Saline Solution), 20 min, individual rats A1-A3): 49.2 ng/mL and 59.5 ng/mL
- Concentrations of Methadone in Rat Plasma Samples ([2]; Study 2 Group A: I.V. tail vein, 0.25 mL Test Article 1 (0.5 mg/mL Methadone-Saline Solution), 40 min, individual rats A1-A3): 33.0 ng/mL and 35.2 ng/mL
- Concentrations of Methadone in Rat Plasma Samples ([2]; Study 2 Group A: I.V. tail vein, 0.25 mL Test Article 1 (0.5 mg/mL Methadone-Saline Solution), 60 min, individual rats A1-A3): 19.7 ng/mL and 24.0 ng/mL
- Concentrations of Methadone in Rat Plasma Samples ([2]; Study 2 Group A: I.V. tail vein, 0.25 mL Test Article 1 (0.5 mg/mL Methadone-Saline Solution), 120 min, individual rats A1-A3): 19.5 ng/mL and 13.1 ng/mL and 9.26 ng/mL
- Concentrations of Methadone in Rat Plasma Samples ([2]; Study 2 Group A: I.V. tail vein, 0.25 mL Test Article 1 (0.5 mg/mL Methadone-Saline Solution), 480 min, individual rats A1-A3): 1.83 ng/mL and 1.96 ng/mL
- Concentrations of Methadone in Rat Plasma Samples ([2]; Study 2 Group A: I.V. tail vein, 0.25 mL Test Article 1 (0.5 mg/mL Methadone-Saline Solution), 1440 min, individual rats A1-A3): 2.31 ng/mL and 0.923 ng/mL
- Concentrations of Methadone in Rat Plasma Samples ([2]; Study 2 Group A: I.V. tail vein, 0.25 mL Test Article 1 (0.5 mg/mL Methadone-Saline Solution), 2160 min, individual rats A1-A3): 0.905 ng/mL and 0.944 ng/mL
- Concentrations of Methadone in Rat Plasma Samples ([2]; Study 2 Group B: topical dorsal flank, 1 × 1 cm gauze pad with 0.2 mL Test Article 2 (Methadone-Diisopropyl Adipate Solution 23.9%), 15 min, individual rats B1-B3): 1.49 ng/mL and 1.70 ng/mL
- Concentrations of Methadone in Rat Plasma Samples ([2]; Study 2 Group B: topical dorsal flank, 1 × 1 cm gauze pad with 0.2 mL Test Article 2 (Methadone-Diisopropyl Adipate Solution 23.9%), 45 min, individual rats B1-B3): 5.66 ng/mL and 3.96 ng/mL and 17.0 ng/mL
- Concentrations of Methadone in Rat Plasma Samples ([2]; Study 2 Group B: topical dorsal flank, 1 × 1 cm gauze pad with 0.2 mL Test Article 2 (Methadone-Diisopropyl Adipate Solution 23.9%), 90 min, individual rats B1-B3): 14.3 ng/mL and 27.1 ng/mL
- Concentrations of Methadone in Rat Plasma Samples ([2]; Study 2 Group B: topical dorsal flank, 1 × 1 cm gauze pad with 0.2 mL Test Article 2 (Methadone-Diisopropyl Adipate Solution 23.9%), 120 min, individual rats B1-B3): 41.4 ng/mL and 19.1 ng/mL and 44.9 ng/mL
- Concentrations of Methadone in Rat Plasma Samples ([2]; Study 2 Group B: topical dorsal flank, 1 × 1 cm gauze pad with 0.2 mL Test Article 2 (Methadone-Diisopropyl Adipate Solution 23.9%), 480 min, individual rats B1-B3): 159 ng/mL and 46.7 ng/mL and 300 ng/mL
- Concentrations of Methadone in Rat Plasma Samples ([2]; Study 2 Group B: topical dorsal flank, 1 × 1 cm gauze pad with 0.2 mL Test Article 2 (Methadone-Diisopropyl Adipate Solution 23.9%), 1440 min, individual rats B1-B3): 117 ng/mL and 168 ng/mL
- Concentrations of Methadone in Rat Plasma Samples ([2]; Study 2 Group B: topical dorsal flank, 1 × 1 cm gauze pad with 0.2 mL Test Article 2 (Methadone-Diisopropyl Adipate Solution 23.9%), 2160 min, individual rats B1-B3): 82.7 ng/mL and 126 ng/mL and 59.4 ng/mL
- Concentrations of Methadone in Rat Plasma Samples ([2]; Study 2 Group B: topical dorsal flank, 1 × 1 cm gauze pad with 0.2 mL Test Article 2 (Methadone-Diisopropyl Adipate Solution 23.9%), 2880 min, individual rats B1-B3): 49.4 ng/mL and 173 ng/mL and 34.0 ng/mL
- Concentrations of Methadone in Rat Plasma Samples ([2]; Study 2 Group C: topical dorsal flank, 1 × 1 cm gauze pad with 0.2 mL Test Article 3 (Methadone-DEET Solution 10%), 15 min, individual rats C1-C3): 0.84 ng/mL and 1.72 ng/mL and 1.04 ng/mL
- Concentrations of Methadone in Rat Plasma Samples ([2]; Study 2 Group C: topical dorsal flank, 1 × 1 cm gauze pad with 0.2 mL Test Article 3 (Methadone-DEET Solution 10%), 45 min, individual rats C1-C3): 2.42 ng/mL and 1.71 ng/mL
- Concentrations of Methadone in Rat Plasma Samples ([2]; Study 2 Group C: topical dorsal flank, 1 × 1 cm gauze pad with 0.2 mL Test Article 3 (Methadone-DEET Solution 10%), 90 min, individual rats C1-C3): 4.7 ng/mL and 2.89 ng/mL
- Concentrations of Methadone in Rat Plasma Samples ([2]; Study 2 Group C: topical dorsal flank, 1 × 1 cm gauze pad with 0.2 mL Test Article 3 (Methadone-DEET Solution 10%), 120 min, individual rats C1-C3): 3.84 ng/mL and 7.73 ng/mL and 3.39 ng/mL
- Concentrations of Methadone in Rat Plasma Samples ([2]; Study 2 Group C: topical dorsal flank, 1 × 1 cm gauze pad with 0.2 mL Test Article 3 (Methadone-DEET Solution 10%), 480 min, individual rats C1-C3): 18.0 ng/mL and 29.6 ng/mL and 14.3 ng/mL
